These results are taken from publication PMC11203424, “Comparative Analysis of Orthosteric and Allosteric GLP-1R Agonists’ Effects on Insulin Secretion from Healthy, Diabetic, and Recovered INS-1E Pancreatic Beta Cells” (International Journal of Molecular Sciences, 2024).

In series [1] the target is T1, GLP-1R (Rattus norvegicus, UniProt P32301).
T1 construct: Rat INS-1E cells were cultured in RPMI-1640 containing 11 mM glucose; endogenous in cells; host or cells: INS-1E rat pancreatic beta cell line (healthy, diabetic and recovered states)
T1 sequence (P32301 22-463): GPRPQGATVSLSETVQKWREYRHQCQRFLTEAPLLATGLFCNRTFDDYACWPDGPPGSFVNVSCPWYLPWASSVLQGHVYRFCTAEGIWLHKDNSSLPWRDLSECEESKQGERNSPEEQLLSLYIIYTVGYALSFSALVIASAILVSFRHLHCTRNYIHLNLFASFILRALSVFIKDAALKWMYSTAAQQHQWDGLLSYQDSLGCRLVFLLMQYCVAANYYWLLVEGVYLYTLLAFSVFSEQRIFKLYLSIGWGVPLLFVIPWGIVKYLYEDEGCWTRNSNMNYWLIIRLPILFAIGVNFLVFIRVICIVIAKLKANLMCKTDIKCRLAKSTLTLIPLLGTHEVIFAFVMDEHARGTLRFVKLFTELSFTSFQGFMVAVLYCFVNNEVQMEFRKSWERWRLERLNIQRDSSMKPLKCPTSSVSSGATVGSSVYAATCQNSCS
Nature of the series: Glucose-stimulated insulin secretion (GSIS), insulin ELISA, INS-1E cells. The class given is cell-based. As to conditions: 10 μM, 15 mM glucose, n = 3. For orientation: ELISA stands for enzyme-linked immunosorbent assay.
Protocol: The cells were maintained in sterile 10 cm^2 tissue culture Petri dishes (Greiner Bio-one, Stonehouse, UK) by changing the FSM every 3–4 days and sub-culturing when they reached 100% confluency. Diabetic and recovered INS-1E cells were generated using a previously described method with some changes [41]. To produce ‘diabetic’ INS-1E cells, when healthy INS-1E cells reached >80% confluency, they were maintained in FSM containing high glucose (40 mM) for 4 weeks by changing the medium with high glucose every 3–4 days. To produce ‘recovered’ cells, the healthy cells were cultured initially in FSM containing 40 mM glucose (diabetic condition) for 4 weeks and then in FSM containing 11 mM glucose for 4 weeks. […] Unless otherwise specified, all incubations of the cells in the following assays were carried out in a humid incubator at 37 °C and 5% CO2, and all of the ELISAs were carried out at room temperature (RT).
For the ELISA, the wells of 96-well plate inserts were coated with 50 μL of 3 μg/mL captured antibody (Novus Biologicals, Abingdon, UK) diluted in PBS for 2 h at 37 °C and then washed four times with PBST. The antibody-coated wells were then blocked for 1 h with 150 μL of blocking buffer (5% fish gelatin made in PBST). Samples of 50 μL of samples were added to the capture antibody-coated wells in duplicate and incubated overnight at 4 °C. The wells were then washed five times with PBST and incubated with 50 μL of HRP-conjugated detection antibody (Abcam; diluted 1/10,000 in dilution buffer) for 2 h. The wells were washed again five times with PBST and incubated with 50 μL of Ultra TMB substrate (Thermo Fisher Scientific, Loughborough, UK) for 5 min. The reaction was stopped by adding an equal volume of 2M sulfuric acid, then its optical density was read at 450 nm (OD450) using a plate reader. Using known insulin standards (Abcam, Cambridge, UK), the insulin concentrations of samples were determined.

Series [2] relates to dipeptidyl peptidase (DPP)-IV. The note with it: cited from earlier work. From the text: Type 2 diabetes (T2D), which is a multifactorial metabolic disease that is largely characterized by impaired insulin secretion and action, has become a global pandemic in recent decades. Despite the availability of various treatments, T2D post-diagnosis complications such as cardiovascular disease (CVD) remain prevalent, and finding long-term stable treatment regimes for patients can be challenging. Therefore, novel therapeutic strategies, which alleviate the pathology associated with T2D more effectively than current treatments, are highly desirable. Th ...

The subject of series [3] is INS-1E cells. Nature of the series: GSIS with cAMP-elevating chemicals, insulin ELISA. The class given is cell-based, Rat. The note with it: IBMX (10 μM), forskolin (0.5 mM), 15 mM glucose, n = 3; for augmentation of GSIS versus allosteric agonists: up to 12 h, p > 0.05. Here is the method: Figure 9 Assessing the time-dependent effects of GLP-1R agonists and cAMP-elevating chemicals (IBMX and forskolin) on GSIS and GSICP in healthy, diabetic, and recovered INS-1E cells. […] Samples were analyzed using insulin (a) and cAMP (b) ELISAs. Data expressed as mean ± SEM, n = 3. […] No symbol on the bars indicates non-significance (p > 0.05) in comparison to the no agonist control at that time point. […] The cells were maintained in sterile 10 cm^2 tissue culture Petri dishes (Greiner Bio-one, Stonehouse, UK) by changing the FSM every 3–4 days and sub-culturing when they reached 100% confluency. Diabetic and recovered INS-1E cells were generated using a previously described method with some changes. […] To produce ‘recovered’ cells, the healthy cells were cultured initially in FSM containing 40 mM glucose (diabetic condition) for 4 weeks and then in FSM containing 11 mM glucose for 4 weeks. For all the following assays, INS-1E cells (100,000 cells/well) were plated in a 96-well plate in FSM and incubated for 24 h in a humid incubator at 37 °C and 5% CO2 for the cells to attach and reach >80% confluency. Unless otherwise specified, all incubations of the cells in the following assays were carried out in a humid incubator at 37 °C and 5% CO2, and all of the ELISAs were carried out at room temperature (RT). The insulin secreted by INS-1E cells during the treatments was measured using an insulin ELISA. INS-1E cells (100,000 cells/well) were plated in a 96-well plate in FSM. […] The cells were then incubated in the KRH buffer containing the specified concentration of glucose without or with the specified concentration of GLP-1R agonist(s) for the desired time. After cessation of the cell treatments, the media were clarified via centrifugation at 22,000× g for 5 min and then diluted 1 in 25 in dilution buffer (0.5% fish gelatin made in PBST [PBS with 0.05% tween-20]) and used for the insulin ELISA. The sample preparation for measuring the intracellular insulin contents of the INS-1E cells via the insulin ELISA was as follows. After cessation of the treatments, the cells were lysed in 150 μL of 0.1 M HCl. The cell lysates were centrifuged at 22,000× g for 5 min, then the supernatant was diluted 1 in 1000 in dilution buffer to use as the samples for the insulin ELISA. For the ELISA, the wells of 96-well plate inserts were coated with 50 μL of 3 μg/mL captured antibody (Novus Biologicals, Abingdon, UK) diluted in PBS for 2 h at 37 °C and then washed four times with PBST. […] The reaction was stopped by adding an equal volume of 2M sulfuric acid, then its optical density was read at 450 nm (OD450) using a plate reader. Using known insulin standards (Abcam, Cambridge, UK), the insulin concentrations of samples were determined.

The subject of series [4] is INS-1E cells. Nature of the series: Intracellular cAMP (GSICP) with cAMP-elevating chemicals, cAMP ELISA. The note with it: IBMX (10 μM), forskolin (0.5 mM), 15 mM glucose, n = 3; for intracellular cAMP (GSICP) versus allosteric agonists: up to 12 h, p > 0.05. The class given is cell-based, Rat. Here is the method: Figure 9 Assessing the time-dependent effects of GLP-1R agonists and cAMP-elevating chemicals (IBMX and forskolin) on GSIS and GSICP in healthy, diabetic, and recovered INS-1E cells. […] Samples were analyzed using insulin (a) and cAMP (b) ELISAs. Data expressed as mean ± SEM, n = 3. […] No symbol on the bars indicates non-significance (p > 0.05) in comparison to the no agonist control at that time point. […] The cells were maintained in sterile 10 cm^2 tissue culture Petri dishes (Greiner Bio-one, Stonehouse, UK) by changing the FSM every 3–4 days and sub-culturing when they reached 100% confluency. Diabetic and recovered INS-1E cells were generated using a previously described method with some changes. […] To produce ‘recovered’ cells, the healthy cells were cultured initially in FSM containing 40 mM glucose (diabetic condition) for 4 weeks and then in FSM containing 11 mM glucose for 4 weeks. For all the following assays, INS-1E cells (100,000 cells/well) were plated in a 96-well plate in FSM and incubated for 24 h in a humid incubator at 37 °C and 5% CO2 for the cells to attach and reach >80% confluency. Unless otherwise specified, all incubations of the cells in the following assays were carried out in a humid incubator at 37 °C and 5% CO2, and all of the ELISAs were carried out at room temperature (RT). The intracellular cAMP contents of the INS-1E cells during the treatments was measured using a cAMP ELISA. INS-1E cells (100,000 cells/well) were plated in a 96-well plate in FSM. After 24 h, the cells were pre-incubated with KRH buffer containing 0.5% fish gelatin for 1 h, washed twice with KRH and then incubated for 1 h with KRH to reduce basal cAMP levels. The cells were incubated in the KRH buffer containing various concentrations of glucose without or with different concentrations of GLP-1R agonists for the desired time. The cells were then lysed in 150 μL of 0.1M HCl by incubating at RT for 20 min, and then the cell lysates were centrifuged at 16,000× g for 10 min. A total of 12 μL of the supernatant was neutralized with 6 μL of 0.2M NaOH, diluted to 120 μL with TBS containing 0.05% Tween-20 (TBST), and used in the cAMP ELISA. For the ELISA, an anti-rabbit antibody (Genscript, Oxford, UK) diluted to 10 μg/mL in 100 mM NaHCO3 buffer (pH 9.6) was used to coat the wells (50 μL per well) of a 96-well plate overnight at 4 °C. The coated wells were washed twice with TBST and blocked with blocking buffer (TBST containing 0.5% fatty acid-free BSA) for 1 h. Samples of 50 μL were then added individually in duplicate to the antibody-coated wells. […] The reaction was stopped after 5 min with 50 μL of 2M sulfuric acid, then its optical density was read at 450 nm (OD450) using a plate reader. Using known cAMP standards, the cAMP contents of the samples were determined.

In series [5] the test system is GLP-1R. More on the design: method as in PMID 27630114, doi:10.4172/2161-1459.1000138, PMID 27138453, PMID 27100083, PMID 25449603. As to conditions: cited from earlier work. From the text: The activation of the Gαs subunit of heterotrimeric G-protein raises intracellular cAMP levels via adenylyl cyclase (AC) activation, whereas the activation of the Gαq subunit increases intracellular calcium (iCa^2+) levels and extracellular signal-regulated kinase (ERK) phosphorylation, which promotes GLP-1R internalization. The internalization of GLP-1R is associate ...

Another series concerns human islets. More on the design: method as in PMID 20823098. As to conditions: human islets isolated from a donor with T2D; cited from earlier work.
Series [6] addresses T1, GLP-1R. The series can be described thus: Glucose-stimulated intracellular cAMP production (GSICP), cAMP ELISA, INS-1E cells. The class given is cell-based. The note with it: diabetic INS-1E; 1 and 2 h, in some instances; 10 μM; n = 3. (Cyclic AMP is a second messenger, typically raised through Gs and lowered through Gi signalling.)
Protocol: The cells were maintained in sterile 10 cm^2 tissue culture Petri dishes (Greiner Bio-one, Stonehouse, UK) by changing the FSM every 3–4 days and sub-culturing when they reached 100% confluency. Diabetic and recovered INS-1E cells were generated using a previously described method with some changes [41]. To produce ‘diabetic’ INS-1E cells, when healthy INS-1E cells reached >80% confluency, they were maintained in FSM containing high glucose (40 mM) for 4 weeks by changing the medium with high glucose every 3–4 days. To produce ‘recovered’ cells, the healthy cells were cultured initially in FSM containing 40 mM glucose (diabetic condition) for 4 weeks and then in FSM containing 11 mM glucose for 4 weeks. […]
The intracellular cAMP contents of the INS-1E cells during the treatments was measured using a cAMP ELISA. […]
For the ELISA, an anti-rabbit antibody (Genscript, Oxford, UK) diluted to 10 μg/mL in 100 mM NaHCO3 buffer (pH 9.6) was used to coat the wells (50 μL per well) of a 96-well plate overnight at 4 °C. […] The reaction was stopped after 5 min with 50 μL of 2M sulfuric acid, then its optical density was read at 450 nm (OD450) using a plate reader. Using known cAMP standards, the cAMP contents of the samples were determined.

Consider `CC(C)(C)Nc1nc2cc(Cl)c(Cl)cc2nc1S(C)(=O)=O` [Compound 2, 6,7-dichloro-2-methylsulfonyl-3-N-tert-butylaminoquinoxaline], for which the “GSIS at 48 h, 72 h and 96 h” value is reported as “significantly boosted GSIS” on GLP-1R [1] (diabetic INS-1E); “slightly increased GSIS” on GLP-1R [1] (healthy and recovered INS-1E).

For `CCCCCCCCCCCCCCCC(=O)N[C@@H](CCC(=O)NCCCC[C@H](NC(=O)[C@H](C)NC(=O)[C@H](C)NC(=O)[C@H](CCC(N)=O)NC(=O)CNC(=O)[C@H](CCC(=O)O)NC(=O)[C@H](CC(C)C)NC(=O)[C@H](Cc1ccc(O)cc1)NC(=O)[C@H](CO)NC(=O)[C@H](CO)NC(=O)[C@@H](NC(=O)[C@H](CC(=O)O)NC(=O)[C@H](CO)NC(=O)[C@@H](NC(=O)[C@H](Cc1ccccc1)NC(=O)[C@@H](NC(=O)CNC(=O)[C@H](CCC(=O)O)NC(=O)[C@H](C)NC(=O)[C@@H](N)Cc1cnc[nH]1)[C@@H](C)O)[C@@H](C)O)C(C)C)C(=O)N[C@@H](CCC(=O)O)C(=O)N[C@@H](Cc1ccccc1)C(=O)N[C@H](C(=O)N[C@@H](C)C(=O)N[C@@H](Cc1c[nH]c2ccccc12)C(=O)N[C@@H](CC(C)C)C(=O)N[C@H](C(=O)N[C@@H](CCCNC(=N)N)C(=O)NCC(=O)N[C@@H](CCCNC(=N)N)C(=O)NCC(=O)O)C(C)C)[C@@H](C)CC)C(=O)O` [Liraglutide], in series [2], the “resistance to DPP-IV” value is on record as “resistant to breakdown by DPP-IV”.

For the compound `C=C[C@@]1(C)CC(=O)[C@]2(O)[C@@]3(C)[C@@H](O)CCC(C)(C)[C@@H]3[C@H](O)[C@H](OC(C)=O)[C@@]2(C)O1` [forskolin], in the series with INS-1E cells [3], the “time after which augmentation of GSIS was lost” value is 12 h and the “augmentation of GSIS versus allosteric agonists” value is listed as “augmented GSIS to similar levels”. In the series on INS-1E cells [4], the “time after which augmentation of GSICP was lost” value was found to be 12 h and the “intracellular cAMP (GSICP) versus allosteric agonists” value is on record as “raised intracellular cAMP levels”.

With `CC(C)Cn1c(=O)n(C)c(=O)c2[nH]cnc21` [IBMX, Isobutylmethylxanthine], in the series with INS-1E cells [3], the “time after which augmentation of GSIS was lost” value is 12 h and the “augmentation of GSIS versus allosteric agonists” value is on record as “augmented GSIS to similar levels”. For the same compound, in the series on INS-1E cells [4], the “time after which augmentation of GSICP was lost” value was 12 h and the “intracellular cAMP (GSICP) versus allosteric agonists” value is recorded as “raised intracellular cAMP levels”.

On to “GLP-1: hormone secreted into the circulation by intestinal L-cells in response to food intake”, for which, in series [2], the half-life entry is “short half-life”. In addition, the “G-protein pathway activation via GLP-1R” value in the series on GLP-1R [5] is “activation of both the Gαs and Gαq pathways”.

`CC[S+]([O-])c1nc(-c2cccc(OCc3ccccc3)c2)cc(C(F)(F)F)n1` (centres unmarked) [Compound B, 4-(3-(benzyloxy)phenyl)-2-(ethylsulfinyl)-6-(trifluoromethyl)-pyramidine]: the insulin secretion result with human islets was “near-normal levels”. In addition, the “GSIS at 48 h, 72 h and 96 h” value is “significantly boosted GSIS” at GLP-1R [1] (diabetic INS-1E); “slightly increased GSIS” on GLP-1R [1] (healthy and recovered INS-1E). Moreover, at GLP-1R [6], the “GSICP, 8 mM glucose preincubation” value is on record as “boosted GSCIP to a greater extent”.
